The subject of one test is PIK3C3. Kind of test: PIK3C3 expression in ST cells (western blot). The test is classed as cell-based, porcine. As to conditions: PM 10 mM, 16 h; for PIK3C3 level, western blot, relative to WT without PM (=1): PRCV 0.1 MOI. As to the method:
Fig 7 PM degrades APN expression via activating PIK3C3-mediated autophagy. (A) Graphical representation for autophagy and the targets of different autophagy inhibitors. (B) ST cells were treated with PM (10 mM) in the presence and absence of 3-MA (20 mM), SBI0206965 (20 µM), and 3BDO (30 µM) for 16 h, and the APN expression was detected by western blot. (C) ST cells were treated with PM (10 mM) in the presence and absence of 3-MA (20 mM) for 16 h, and the APN, PIK3C3, ATG14, BECN1, P62, and LC3 were measured by western blot. (D) ST cells were transfected with PIK3C3 siRNA-1, PIK3C3 siRNA-2, PIK3C3 siRNA-3, PIK3C3 siRNA-4, and NC siRNA for 24 h, the PIK3C3 expression was detected by western blot. (E) ST cells were transfected with PIK3C3 siRNA-4 or NC siRNA for 24 h and then treated with PM (10 mM) for 16 h. The APN, PIK3C3, ATG14, BECN1, P62, and LC3 were detected by western blot. (F) Sequencing diagram for WT ST cells and PIK3C3 KO ST cells. (G) PIK3C3 was detected by western blot in WT ST cells and PIK3C3 KO ST cells. (H) WT ST cells and PIK3C3 KO ST cells were treated with PM (10 mM) for 16 h and then the APN, PIK3C3, ATG14, BECN1, P62, and LC3 were detected by western blot. (I) WT ST cells and PIK3C3 KO ST cells were transfected with pCMV-Myc and pCMV-Myc-PIK3C3, respectively, for 24 h and treated with PM (10 mM) for 16 h. The APN, PIK3C3, P62, and LC3 were detected by western blot. All western blot results were calculated by Image J. All experiments were performed in triplicate.
Fig. S8. PM inhibits PRCV infection by degrading APN via PIK3C3-mediated autophagy. (A-C) WT ST cells and PIK3C3 KO ST cells were treated with PM (10 mM) and infected with PRCV (0.1 MOI) for 16 h. Then the APN, PIK3C3, ATG14, BECN1, P62, PRCV N and LC3 were detected by western blot (A), and viral titers and PRCV N mRNA level were determined by TCID50 (B) and RT-qPCR (C) . […] The APN, PIK3C3, P62, PRCV N and LC3 were determined by western blot (D). […]
(A western blot detects proteins with antibodies after separation by electrophoresis.)

The next test has as its system TGEV Miller. Description: TGEV infection of porcine intestinal organoids (monolayer, apical-out). The test is classed as cell-based, transmissible gastroenteritis virus. The following applies: RT-qPCR, TCID50, western blot. As to the method: Fig 2 PM restricts TGEV and PRCV infection in porcine intestinal organoids. (A) Intestinal organoids cultured in 96-well plate were incubated with different concentrations of PM for 24 h, which was tested by Cell Counting Kit 8. (B and C) The intestinal organoids monolayer was treated with indicated PM and infected with TGEV Miller (0.1 MOI) for 24 h, which was measured by IFA (B), scale bar: 50 µm, RT-qPCR, TCID50, and western blot (C). (D) Apical-out intestinal organoids were treated with indicated PM and infected TGEV Miller (1 MOI) for 48 h, which was determined by RT-qPCR, TCID50, and western blot. (E and F) The intestinal organoids monolayer was treated with different concentrations of PM and infected with PRCV for 24 h, which was determined by IFA (E), scale bar: 50 µm, RT-qPCR, TCID50, and western blot (F). (G) Apical-out intestinal organoids were treated with indicated PM and infected PRCV (1 MOI) for 48 h, which was detected by RT-qPCR, TCID50, and western blot. Results are presented as mean ± SD of data from three independent experiments. **, P ≤ 0.01; ***, P ≤ 0.001.
Porcine 3D ileum organoids coated with Matrigel for 1 week were dissociated by incubation in 5 mM cold EDTA buffer on a rotating platform for 1 h at 4°C. […]
For orientation: Real-time PCR tracks product formation cycle by cycle.

The subject of a further test is PDCoV. Description: PDCoV infection of PK1 cells (RT-qPCR). The test is classed as cell-based. The following applies: PM 10 mM, PDCoV 0.1 MOI, 17 h. The protocol:
Fig. S1. […] (A) The PK1 cells, pretreated with PM (10mM) concentrations for 1 h were infected with PDCoV (0.1 MOI) for 1 h and were again treated with PM at 37 °C for 17 h.
The cell samples were collected and examined by RT-qPCR . Results are presented as mean ± SD of data from three independent experiments ***, P≤ 0.001.
(also on this page, place not known: RT-qPCR. + - + + 2 3 4 5 6Viral load(log copies/ul) *** PDCoV PM PDCoV M)
(1 picture or pasted object on this page, not shown here)

The structures appear in SMILES notation. “Also recorded” adds a separate entry of the source.

With `[K+].[K+].[O]=[Mo](=[O])([O-])[O-]` [PM, potassium molybdate], the “PIK3C3 level, western blot, relative to WT without PM (=1)” value with PIK3C3 (Fig. S8A, WT ST cells) amounted to 2.83; in the test on PIK3C3 (Fig. S8D, WT ST cells with pCMV-Myc) it was 1.73. In the test on PIK3C3 (ST cells, western blot), the PIK3C3 expression result was “activated PIK3C3 expression”. The “TGEV infection in intestinal organoid monolayer” value with TGEV Miller (TGEV Miller 0.1 MOI, 24 h, IFA, dose-dependent) is recorded as “significantly inhibited TGEV infection”. The “TGEV infection in apical-out organoids” value in the test with TGEV Miller (TGEV Miller 1 MOI, 48 h) was “markedly inhibited TGEV infection”. Further, the PDCoV infection result in the test with PDCoV was “inhibits PDCoV infection; also recorded: effectively restricted”.

(Values after publication PMC11784013, “Potassium molybdate blocks APN-dependent coronavirus entry by degrading receptor via PIK3C3-mediated autophagy” (Journal of Virology, 2024).)
